Test results: patent US6593342B1, “Pharmaceutical compositions comprising 2-quinolones” (Laboratoire L. Lafon, priority 1998, dated 2003)

Tests used:
colorectal line HT-29 = assay: Clonogenic test (soft agar colony growth), HT-29; assay type: cell-based; conditions: 21 days, control = 100%, mean ± SEM
Text: (§1) 1—Interaction (Stimulation or Inhibition of Proliferation) With the Generation of Clonogenic Cells (Clonogenic Test)
(§2) The test used is that described by Hamburger et al. (Science, 1977; 197, 461-463) and Salmon et al. (New England J. Med., 298, 1321-1327). A cell is considered clonogenic if it has the capacity to proliferate and to give rise to a cell colony. “Human tumor stem cells” are the cells which are the source of the neoplastic cells which constitute a given tumor. These tumor stem cells are responsible for the relapse processes which may be observed after surgical resection of primary tumors and are also responsible for the formation of metastases. In a tumor or a tumor cell line, these clonogenic stem cells differ from the other cells of the tumor or from the neoplastic cell line under consideration in that they conserve their capacity to proliferate in the absence of any solid support.
(§3) In this test, the tumor cells are cultured on a semi-solid support consisting of agar. […] In a tumor cell population, cultured on such a support, it is these clonogenic cells (associated with an unlimited number of cell divisions and whose proliferation is referred to by M. I. Dawson as “anchorage-independent [clonal] growth”) which are capable of growing. The percentage of these clonogenic cells in a tumor or a cell line ranges between 0.1% and 0.001%.
(§4) The influence of the compounds of formulae (I) and (Ia) on the growth of the cell colonies obtained by culturing, for example, the mammalian tumor lines MCF7 and MXT and the colorectal line HT-29 on the semi-liquid culture medium known as “soft agar” was measured. On such a medium, only the clonogenic cells referred to by M. I. Dawson as “anchorage-independent (clonal) cells” survive and grow. The growth of these cells in such a “non-adherent” mode bears witness to their degree of tumorigenicity. The inhibition of the growth of the size of a tumor in which a larger number of clonogenic cells has developed then becomes the evidence of reinforced cytotoxic activity.
(§5) Conversely, this test can also reveal that a compound is capable of inhibiting the generation/proliferation of clonogenic cells, thus making the tumor less able to grow and thus reducing the population of tumor cells.
(§6) The tumor cell lines studied are maintained in culture in 25 cm^2 falcon dishes. They are then trypsinized and the cells are fully dissociated from each other. The percentage of live cells is determined after staining with trypan blue. A cell suspension at a concentration of from 5·10^4 to 15·10^4 cells/ml (depending on the cell type under consideration) is prepared in a 0.3% agar solution. Next, 200 μl of this suspension are inoculated in Petri dishes 35 mm in diameter, in which are placed 3 ml of a base layer consisting of a 0.5% agar solution. The 200 μl of cell suspension are in turn covered with 1.8 ml of an upper layer consisting of a 0.3% agar solution. The dishes are then placed in an incubator at 37° C., 5% CO2 and 70% humidity until the treatment. This treatment is carried out about 1 to 2 hours after the inoculation. The test compounds are prepared at a concentration 100 times greater than the desired concentration and 50 μl of these treating solutions are placed over the upper layer of agar in the corresponding dishes. In the present study, the final concentration of the test products is 10^−5, 10^−7 and 10^−9 M. The dishes are then kept in an incubator for 21 days. On the 21st day the dishes are treated by depositing on the upper layer 100 μl of a 1 mg/ml solution of MTT (3-(4,5-dimethylthiazol-2-yl)-2,5-diphenyltetrazolinium bromide prepared with RPMI 1640 medium) for 3 h at 37° C. After this period, the cell colonies are fixed by adding 2 ml of formalin per dish. After fixing for 24 hours, the formalin is evaporated off and the number of stained cell colonies, thus consisting of metabolically active cells, and whose surface area is greater than 100 μm^2, is determined using an inverted microscope. […]

MXT = assay: Clonogenic test (soft agar colony growth), MXT; assay type: cell-based, mouse; conditions: 21 days, control = 100%, mean ± SEM
Text: as §1, §2, §3, §4, §5, §6

A549 = assay: MTT test, A549; assay type: cell-based; conditions: Homo sapiens, 10^−5 M, 72 hours, control = 100%, mean ± SEM, read-out: average optical density (MTT), percentage relative to control
Experimental: The influence of the compounds of formulae (I) and (Ia) on non-clonogenic cells was evaluated with the aid of the MTT calorimetric test.
The principle of the MTT test is based on the mitochondrial reduction, by the metabolically active live cells, of the yellow-colored product MTT (3-(4,5-dimethylthiazol-2-yl)-2,5-diphenyltetrazolium bromide) to a blue-colored product, formazan. The amount of formazan thus obtained is directly proportional to the amount of live cells present in the culture well(s). This amount of formazan is measured by spectrophotometry.
The cell lines are maintained as a monolayer culture at 37° C. in stoppered culture dishes containing MEM 25 MM HEPES (Minimum Essential Medium) base medium. This medium is suited to the growth of a range of various mammalian diploid or primary cells. This medium is then supplemented with:
an amount of 5% of FCS (Foetal Calf Serum) decomplemented at 56° C. for 1 hour,
0.6 mg/ml of L-glutamine,
200 μg/ml of streptomycin,
The 12 human cancer cell lines which were used were obtained from the American Type Culture Collection (ATCC, Rockville, Md., USA). These 12 cell lines are:
A549 (code ATCC: CCL-185) and A-427 (code ATCC: HTB-53) which are two non-small-cell lung cancers,
Experimentally: 100 μl of a cell suspension containing 20 000 to 50 000 (depending on the cell type used) cells/ml of culture medium are inoculated in 96-well flat-bottomed multi-well plates and are incubated at 37° C., under an atmosphere comprising 5% CO2 and 70% humidity. After incubation for 24 hours, the culture medium is replaced with 100 μl of fresh medium containing either the various test compounds at concentrations ranging from 10^−5 to 10^−10 M or the solvent used to dissolve the test products (control condition). After incubation for 72 hours under the above conditions, the culture medium is replaced with 100 μl of a yellowish solution of MTT dissolved at a rate of 1 mg/ml in RPMI 1640. The microplates are reincubated for 3 hours at 37° C. and are then centrifuged for 10 minutes at 400×g. The yellowish solution of MTT is removed and the blue formazan crystals formed in the cell are dissolved in 100 μl of DMSO. The microplates are then shaken for 5 minutes. The intensity of the resulting blue coloration, and thus of the conversion of the yellow product MTT into blue formazan by the cells that are still alive at the end of the experiment, is quantified by spectrophotometry using a Dynatech Immunoassay System machine at wavelengths of 570 nm and 630 nm corresponding, respectively, to the maximum absorption wavelengths of formazan and to the background noise. Software incorporated in the spectrophotometer calculates the average optical density values and the standard deviation (SD) and standard error of mean (SEM) values.
By way of example, the results of the average optical density, expressed as a percentage relative to the average optical density measured under the control condition (set equal to 100%), obtained at a concentration of 10^−5 M on the 12 abovementioned tumor cell lines are given in Table II.

SMILES | average number of clones of clonogenic cells, percentage relative to control (colorectal line HT-29; 10^−5 M) | average number of clones of clonogenic cells, percentage relative to control (colorectal line HT-29; 10^−7 M) | average number of clones of clonogenic cells, percentage relative to control (colorectal line HT-29; 10^−9 M) | average number of clones of clonogenic cells, percentage relative to control (MXT; 10^−5 M) | average number of clones of clonogenic cells, percentage relative to control (MXT; 10^−7 M) | average number of clones of clonogenic cells, percentage relative to control (MXT; 10^−9 M) | viability at 10 µM (A549)
COc1ccc(-c2cc3c(OC)cc(OC)cc3[nH]c2=O)cc1 [CRL8246, 5,7-Dimethoxy-3-(4-methoxyphenyl)-1,2-dihydro-2-quinolinone] | 70.9 ± 2.8% | 103.3 ± 3.6% | 104 ± 2.7% | 96.7 ± 7.2% | 97.7 ± 9.3% | 95.2 ± 6.8% | 113 ± 2.1%
COc1ccc(-c2cc3c(OC)cc(OC)cc3n(CCC#N)c2=O)cc1 [CRL8247, 3-[5,7-Dimethoxy-3-(4-methoxyphenyl)-2-oxo-1,2-dihydro-1-quinolinyl]propanenitrile] | 72.7 ± 3.6% | 98.3 ± 4.9% | 104.5 ± 2.7% | 65.7 ± 1.7% | 89.6 ± 4.9% | 98.4 ± 2.6% | 81.3 ± 1.9%
COc1ccc(-c2cc3c(OC)cc(OC)cc3n(CCc3nnn[nH]3)c2=O)cc1 [CRL8256, 1-[2-(1H-1,2,3,4-Tetrazol-5-yl)ethyl]-5,7-dimethoxy-3-(4-methoxyphenyl)-1,2-dihydro-2-quinolinone] | 97.1 ± 4.3% | 100.5 ± 4.1% | 107.5 ± 3.7% | 53 ± 1.9% | 103.8 ± 3.9% | 104.5 ± 4.7% | 56.5 ± 3.7%
CCN(CC)C(=O)CCn1c(=O)c(-c2ccc(OC)cc2)cc2c(OC)cc(OC)cc21 [CRL8283, N,N-Diethyl-3-[5,7-dimethoxy-3-(4-methoxy-phenyl)-2-oxo-1,2-dihydro-1-quinolinyl]propanamide] | 88.9 ± 0.2% | 90.9 ± 3.1% | 106.1 ± 1.4% | 23.7 ± 1.4% | 81.2 ± 3% | 91.4 ± 4% | 63.6 ± 4.2%
CCN(CC)C(=O)Cn1c(=O)c(-c2ccc(OC)cc2)cc2c(OC)cc(OC)cc21 [CRL8315, N,N-Diethyl-2-[5,7-dimethoxy-3-(4-methoxy-phenyl)-2-oxo-1,2-dihydro-1-quinolinyl]acetamide] | 103.5 ± 4.5% | 111.9 ± 5.4% | 112.9 ± 2.4% | 76 ± 2.3% | 103.9 ± 4.3% | 102.4 ± 3.9% | 76.1 ± 2.4%
COc1ccc(-c2cc3c(OC)cc(OC)cc3n(CCN(C)C)c2=O)cc1 [CRL8316, 1-[2-(Dimethylamino)ethyl]-5,7-dimethoxy-3-(4-methoxyphenyl)-1,2-dihydro-2-quinolinone] | 50.6 ± 1.8% | 80.1 ± 2.9% | 101.6 ± 3.2% | 10.8 ± 0.5% | 89.1 ± 3.7% | 95.3 ± 3.8% | 84.2 ± 1.9%
